# Measured values published in ChEMBL document CHEMBL3885881, “DrugMatrix”.
# Species on record: Rattus norvegicus
# Assay: DrugMatrix - Regimen: Daily Repeat
# Type: toxicity, organism-based, Sprague-Dawley
# Parameters: regimen Daily Repeat, gender Male, age 6-8 weeks
# Details: in vivo, po, route oral GAVAGE, vehicle .5 % CMC; for ABSOLUTE BASOPHIL / ABSOLUTE EOSINOPHIL / ABSOLUTE LYMPHOCYTE / ABSOLUTE MONOCYTE / ABSOLUTE SEGMENTED NEUTROPHIL / BASOPHIL / EOSINOPHIL / ERYTHROCYTE COUNT / HEMATOCRIT / HEMOGLOBIN / LEUKOCYTE COUNT / LYMPHOCYTE / MEAN CORPUSCULAR HEMOGLOBIN / MEAN CORPUSCULAR HEMOGLOBIN CONCENTRATION / MEAN CORPUSCULAR VOLUME / MONOCYTE / NEUTROPHIL / NUCLEATED RED BLOOD CELLS / PLATELET COUNT: tissue Blood; for ALANINE AMINOTRANSFERASE / ALBUMIN / ALKALINE PHOSPHATASE / ASPARTATE AMINOTRANSFERASE / BLOOD UREA NITROGEN / CARBON DIOXIDE / CHLORIDE / CHOLESTEROL / CREATINE PHOSPHOKINASE / CREATININE / GLUCOSE / LACTATE DEHYDROGENASE / LIPASE / PHOSPHORUS / POTASSIUM / SODIUM / TOTAL BILIRUBIN / TOTAL PROTEIN / URIC ACID: tissue Plasma
# [1] = 29 mg/kg, 120 h, dose level Low, time 5 day
# [2] = 400 mg/kg, 72 h, dose level High, time 3 day
# [3] = 400 mg/kg, 120 h, dose level High, time 5 day
smiles,measurement,setting,value
NC(=O)NC(=O)Cc1ccccc1 [PHENACEMIDE],ABSOLUTE BASOPHIL,[1],0 CELLS/uL
same,ABSOLUTE EOSINOPHIL,[1],29.33 CELLS/uL
same,ABSOLUTE LYMPHOCYTE,[1],6627.33 CELLS/uL
same,ABSOLUTE MONOCYTE,[1],106 CELLS/uL
same,ABSOLUTE SEGMENTED NEUTROPHIL,[1],904 CELLS/uL
same,BASOPHIL,[1],0%
same,EOSINOPHIL,[1],0.33%
same,ERYTHROCYTE COUNT,[1],5.3 x10E6/uL
same,HEMATOCRIT,[1],32%
same,HEMOGLOBIN,[1],12.6 G/DL
same,LEUKOCYTE COUNT,[1],7.67 x10E3/uL
same,LYMPHOCYTE,[1],86%
same,MEAN CORPUSCULAR HEMOGLOBIN,[1],23.8 pg
same,MEAN CORPUSCULAR HEMOGLOBIN CONCENTRATION,[1],39.37 G/DL
same,MEAN CORPUSCULAR VOLUME,[1],60.37 fL
same,MONOCYTE,[1],1.33%
same,NEUTROPHIL,[1],12.33%
same,NUCLEATED RED BLOOD CELLS,[1],0 /100WBC
same,PLATELET COUNT,[1],1108.33 x10E3/uL
same,ALANINE AMINOTRANSFERASE,[1],42.67 u/L
same,ALBUMIN,[1],4.13 G/DL
same,ALKALINE PHOSPHATASE,[1],433.33 u/L
same,ASPARTATE AMINOTRANSFERASE,[1],75.33 u/L
same,BLOOD UREA NITROGEN,[1],15.33 mg/dL
same,CARBON DIOXIDE,[1],25.67 mmol/L
same,CHLORIDE,[1],102.33 MEQ/L
same,CHOLESTEROL,[1],82.67 mg/dL
same,CREATINE PHOSPHOKINASE,[1],189.67 u/L
same,CREATININE,[1],0.28 mg/dL
same,GLUCOSE,[1],176.33 mg/dL
same,LACTATE DEHYDROGENASE,[1],163.33 u/L
same,LIPASE,[1],10 u/L
same,PHOSPHORUS,[1],11.93 mg/dL
same,POTASSIUM,[1],5.88 MEQ/L
same,SODIUM,[1],145.3 MEQ/L
same,TOTAL BILIRUBIN,[1],0.1 mg/dL
same,TOTAL PROTEIN,[1],6.07 G/DL
same,URIC ACID,[1],1.5 mg/dL
same,ABSOLUTE BASOPHIL,[2],0 CELLS/uL
same,ABSOLUTE EOSINOPHIL,[2],62.33 CELLS/uL
same,ABSOLUTE LYMPHOCYTE,[2],7750.67 CELLS/uL
same,ABSOLUTE MONOCYTE,[2],54.67 CELLS/uL
same,ABSOLUTE SEGMENTED NEUTROPHIL,[2],1099 CELLS/uL
same,BASOPHIL,[2],0%
same,EOSINOPHIL,[2],0.67%
same,ERYTHROCYTE COUNT,[2],5.14 x10E6/uL
same,HEMATOCRIT,[2],31.23%
same,HEMOGLOBIN,[2],11.97 G/DL
same,LEUKOCYTE COUNT,[2],8.97 x10E3/uL
same,LYMPHOCYTE,[2],86.67%
same,MEAN CORPUSCULAR HEMOGLOBIN,[2],23.33 pg
same,MEAN CORPUSCULAR HEMOGLOBIN CONCENTRATION,[2],38.33 G/DL
same,MEAN CORPUSCULAR VOLUME,[2],60.87 fL
same,MONOCYTE,[2],0.67%
same,NEUTROPHIL,[2],12%
same,NUCLEATED RED BLOOD CELLS,[2],0.67 /100WBC
same,PLATELET COUNT,[2],1052.67 x10E3/uL
same,ALANINE AMINOTRANSFERASE,[2],54 u/L
same,ALBUMIN,[2],4.33 G/DL
same,ALKALINE PHOSPHATASE,[2],480.33 u/L
same,ASPARTATE AMINOTRANSFERASE,[2],86 u/L
same,BLOOD UREA NITROGEN,[2],17 mg/dL
same,CARBON DIOXIDE,[2],30 mmol/L
same,CHLORIDE,[2],104 MEQ/L
same,CHOLESTEROL,[2],77.67 mg/dL
same,CREATINE PHOSPHOKINASE,[2],137.33 u/L
same,CREATININE,[2],0.47 mg/dL
same,GLUCOSE,[2],160.67 mg/dL
same,LACTATE DEHYDROGENASE,[2],98.33 u/L
same,LIPASE,[2],11 u/L
same,PHOSPHORUS,[2],13.1 mg/dL
same,POTASSIUM,[2],5.91 MEQ/L
same,SODIUM,[2],148.57 MEQ/L
same,TOTAL BILIRUBIN,[2],0.13 mg/dL
same,TOTAL PROTEIN,[2],6 G/DL
same,URIC ACID,[2],1.17 mg/dL
same,ABSOLUTE BASOPHIL,[3],0 CELLS/uL
same,ABSOLUTE EOSINOPHIL,[3],0 CELLS/uL
same,ABSOLUTE LYMPHOCYTE,[3],9516.67 CELLS/uL
same,ABSOLUTE MONOCYTE,[3],47 CELLS/uL
same,ABSOLUTE SEGMENTED NEUTROPHIL,[3],1103 CELLS/uL
same,BASOPHIL,[3],0%
same,EOSINOPHIL,[3],0%
same,ERYTHROCYTE COUNT,[3],5.74 x10E6/uL
same,HEMATOCRIT,[3],34.53%
same,HEMOGLOBIN,[3],13.23 G/DL
same,LEUKOCYTE COUNT,[3],10.67 x10E3/uL
same,LYMPHOCYTE,[3],88.67%
same,MEAN CORPUSCULAR HEMOGLOBIN,[3],23.07 pg
same,MEAN CORPUSCULAR HEMOGLOBIN CONCENTRATION,[3],38.33 G/DL
same,MEAN CORPUSCULAR VOLUME,[3],60.23 fL
same,MONOCYTE,[3],0.33%
same,NEUTROPHIL,[3],11%
same,NUCLEATED RED BLOOD CELLS,[3],0 /100WBC
same,PLATELET COUNT,[3],1161.33 x10E3/uL
same,ALANINE AMINOTRANSFERASE,[3],47 u/L
same,ALBUMIN,[3],4.43 G/DL
same,ALKALINE PHOSPHATASE,[3],491.67 u/L
same,ASPARTATE AMINOTRANSFERASE,[3],84.33 u/L
same,BLOOD UREA NITROGEN,[3],22 mg/dL
same,CARBON DIOXIDE,[3],24.67 mmol/L
same,CHLORIDE,[3],105 MEQ/L
same,CHOLESTEROL,[3],64 mg/dL
same,CREATINE PHOSPHOKINASE,[3],157 u/L
same,CREATININE,[3],0.73 mg/dL
same,GLUCOSE,[3],176.33 mg/dL
same,LACTATE DEHYDROGENASE,[3],96.33 u/L
same,LIPASE,[3],8.67 u/L
same,PHOSPHORUS,[3],12.63 mg/dL
same,POTASSIUM,[3],6.59 MEQ/L
same,SODIUM,[3],146.77 MEQ/L
same,TOTAL BILIRUBIN,[3],0.1 mg/dL
same,TOTAL PROTEIN,[3],5.97 G/DL
same,URIC ACID,[3],1.8 mg/dL
